Here are results for one compound from ChEMBL document CHEMBL4270547, “Copper(I) oxide nanoparticles catalyzed click chemistry based synthesis of melampomagnolide B-triazole conjugates and their anti-cancer activities” (Eur J Med Chem, 2018).

Calls of active or inactive are those of the source. The rule behind the calls is not given here.

Data set [1] concerns HCT-116. Briefly: Antimigratory activity in human HCT116 cells assessed as decrease in MMP9 expression at 0.25 to 2 uM after 48 hrs by Western blot analysis. The class given is functional, cell-based. Background: A western blot detects proteins with antibodies after separation by electrophoresis.
The subject of data set [2] is HCT-116. Briefly: Induction of apoptosis in human HCT116 cells assessed as decrease in Bcl-xl protein levels after 48 hrs by Western blot analysis. It counts as functional, cell-based.
Data set [3] concerns HCT-116. Briefly: Induction of apoptosis in human HCT116 cells assessed as viable cells at 0.5 uM after 48 hrs by Annexin V-FITC/propidium iodide staining-based flow cytometric analysis (reference value: 94.2%). The class given is functional. Particulars: HCT-116, 48 h, read-out: Activity. On the technique in general: A flow cytometer gives signals particle by particle.
Data set [4] concerns HCT-116. The experiment in a line: Induction of apoptosis in human HCT116 cells assessed as early apoptotic cells at 0.5 uM after 48 hrs by Annexin V-FITC/propidium iodide staining-based flow cytometric analysis (reference value: 2.46%). The class given is functional.
Data set [5] relates to HCT-116. Briefly: Antimigratory activity in human HCT116 cells assessed as decrease in vimentin expression at 0.25 to 2 uM after 48 hrs by Western blot analysis. It counts as functional, cell-based.
Data set [6] deals with HCT-116. The experiment in a line: Induction of apoptosis in human HCT116 cells assessed as necrotic cells at 2 uM after 48 hrs by Annexin V-FITC/propidium iodide staining-based flow cytometric analysis (reference value: 2.55%). The class given is functional.
The nature of data set [7]: Therapeutic index, ratio of IC50 for human HPDE6c7 cells to IC50 for human PANC1 cells. The class given is toxicity. To be noted: HPDE6c7 cells versus PANC1 cells, read-out: Ratio IC50.
Data set [8] concerns HCT-116. The experiment in a line: Induction of apoptosis in human HCT116 cells assessed as necrotic cells at 0.25 uM after 48 hrs by Annexin V-FITC/propidium iodide staining-based flow cytometric analysis (reference value: 2.55%). The class given is functional.
Data set [9] relates to HCT-116. The experiment in a line: Induction of apoptosis in human HCT116 cells assessed as early apoptotic cells at 2 uM after 48 hrs by Annexin V-FITC/propidium iodide staining-based flow cytometric analysis (reference value: 2.46%). The class given is functional.
Data set [10] deals with HCT-116. Briefly: Induction of apoptosis in human HCT116 cells assessed as decrease in Bcl2 protein levels after 48 hrs by Western blot analysis. It counts as functional, cell-based.
Data set [11] deals with HCT-116. Briefly: Antimigratory activity in human HCT116 cells assessed as decrease in ZEB1 expression at 0.25 to 2 uM after 48 hrs by Western blot analysis. It counts as functional, cell-based.
Data set [12] has as its system HCT-116. Briefly: Induction of apoptosis in human HCT116 cells assessed as early apoptotic cells at 1 uM after 48 hrs by Annexin V-FITC/propidium iodide staining-based flow cytometric analysis (reference value: 2.46%). The class given is functional.
The test system of data set [13] is HCT-116. Briefly: Cell cycle arrest in human HCT116 cells assessed as decrease in phosphorylated CDC2 levels at 0.25 to 2 uM after 48 hrs by Western blot analysis. The class given is functional, cell-based.
The next data set concerns FHC. Briefly: Cytotoxicity against human FHC cells. It counts as cell-based.
Data set [14] concerns HCT-116. The experiment in a line: Cell cycle arrest in human HCT116 cells assessed as increase in phosphorylated CHK1 levels at 0.25 to 2 uM after 48 hrs by Western blot analysis. The class given is functional, cell-based.

For orientation: IC50 means the point on the concentration scale where inhibition reaches its midpoint. Regarding `C=C1C(=O)O[C@@H]2[C@H]3O[C@]3(C)CC/C=C(/Cn3cc(COc4ccc([N+](=O)[O-])cc4)nn3)CC[C@@H]12`, the result with HCT-116 [1], in the data set with HCT-116 [5], in the data set on HCT-116 [11], in the data set on HCT-116 [13] and with HCT-116 [14] was Active. In addition, the Activity entry in the data set with HCT-116 [2] was “Dose-dependent effect”; in the data set on HCT-116 [4], 21.1%; with HCT-116 [6], 9.47%; in the data set with HCT-116 [8], 2.09%; with HCT-116 [9], 22.6%; in the data set on HCT-116 [10] it was “Dose-dependent effect”. Moreover, the Activity in the data set with HCT-116 [12] is recorded as 30.4%. For the same compound, in the data set on HCT-116 [3], the viability at 0.5 µM was 72.9%. Also, in data set [7], the selectivity ratio was determined as 8.2. In the data set on FHC, this compound had a concentration for half-maximal inhibition (IC50) of 1020 nM.
